Measured values published in patent US10494376B2, “Tetrahydroisoquinoline derived PRMT5-inhibitors” (CTXT PTY LTD, priority 2014, dated 2019).
Where a name gives a salt, the structure may show the parent alone.

Target: Full-length PRMT5 enzyme (NCBI Reference sequence NP_006100.2) co-expressed with His6-MEP50 (Homo sapiens (Human), UniProt O14744)
Assay: Revised PRMT5 Biochemical Assay
Details: 1 μM peptide substrate, 1 μM S-Adenosyl methionine, 4 hours at 37 degree Celsius, Transcreener EPIGEN fluorescence polarisation
Method: Compounds of the invention may be tested for in vitro activity in the following assay: A histone H4 derived peptide is used as substrate (amino acid sequence: […]N H2). Full-length PRMT5 enzyme (NCBI Reference sequence NP_006100.2) was co-expressed with His6-MEP50 in insect cells and purified via Nickel immobilized metal affinity and gel filtration chromatography (“the enzyme”).
The 6 μL reactions are run in Greiner brand black 384-well low volume assay plates. All reactions contained assay buffer (phosphate buffered saline, 0.01% (v/v) Tween-20, 0.01% (w/v) albumin from chicken egg white, 1 mM Dithiothreitol, 1 μM peptide substrate, 1 μM S-Adenosyl methionine, and 15 ng/reaction enzyme, with the enzyme being omitted from negative control reactions. Compounds were added in a volume of 100 nL from dilution series prepared in DMSO, positive and negative control reactions receiving the same volume DMSO without compound. The plates were sealed with adhesive seals and incubated for 4 hours at 37 degree Celsius. Reaction progress was measured using the Transcreener™ EPIGEN methyltransferase assay (BellBrook Labs, Madison, Wis.) as recommended by the manufacturer. To each reaction 2 μL detection mix were added, containing coupling enzymes, fluorescence polarisation tracer, and AMP antibody. Plates were incubated for 90 minutes before being read on a PerkinElmer EnVision™ plate reader in fluorescence polarisation mode. IC50 values were obtained from the raw readings by calculating percent inhibition (%1) for each reaction relative to controls on the same plate (% I=(I−CN)/(CP−CN) where CN/CP are the averages of the negative/positive reactions, respectively), then fitting the %1 data vs. compound concentration [I] to % I=(A+((B−A)/(1+((C/[I])^D)))) where A is the lower asymptote, B is the upper asymptote, C is the IC50 value, and D is the slope.

Sequence of Full-length PRMT5 enzyme (NCBI Reference sequence NP_006100.2) co-expressed with His6-MEP50 (O14744 whole entry): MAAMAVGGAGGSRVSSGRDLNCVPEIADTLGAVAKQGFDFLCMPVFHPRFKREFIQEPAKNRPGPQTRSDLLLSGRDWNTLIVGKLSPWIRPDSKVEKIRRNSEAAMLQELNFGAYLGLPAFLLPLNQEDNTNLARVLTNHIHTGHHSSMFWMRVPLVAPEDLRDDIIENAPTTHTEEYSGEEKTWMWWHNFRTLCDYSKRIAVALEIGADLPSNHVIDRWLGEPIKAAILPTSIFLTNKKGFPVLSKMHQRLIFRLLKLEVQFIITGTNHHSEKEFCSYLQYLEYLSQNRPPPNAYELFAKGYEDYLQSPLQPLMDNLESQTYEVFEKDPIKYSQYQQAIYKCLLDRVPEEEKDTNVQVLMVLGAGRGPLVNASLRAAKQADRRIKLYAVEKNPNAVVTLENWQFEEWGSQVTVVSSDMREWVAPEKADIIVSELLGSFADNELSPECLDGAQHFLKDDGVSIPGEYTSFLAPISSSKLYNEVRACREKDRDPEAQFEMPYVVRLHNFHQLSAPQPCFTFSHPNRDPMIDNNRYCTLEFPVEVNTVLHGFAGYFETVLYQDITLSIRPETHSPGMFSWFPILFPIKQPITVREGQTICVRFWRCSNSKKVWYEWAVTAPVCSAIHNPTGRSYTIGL
Sequence of Full-length PRMT5 enzyme (NCBI Reference sequence NP_006100.2) co-expressed with His6-MEP50 (Q9BQA1 whole entry partner): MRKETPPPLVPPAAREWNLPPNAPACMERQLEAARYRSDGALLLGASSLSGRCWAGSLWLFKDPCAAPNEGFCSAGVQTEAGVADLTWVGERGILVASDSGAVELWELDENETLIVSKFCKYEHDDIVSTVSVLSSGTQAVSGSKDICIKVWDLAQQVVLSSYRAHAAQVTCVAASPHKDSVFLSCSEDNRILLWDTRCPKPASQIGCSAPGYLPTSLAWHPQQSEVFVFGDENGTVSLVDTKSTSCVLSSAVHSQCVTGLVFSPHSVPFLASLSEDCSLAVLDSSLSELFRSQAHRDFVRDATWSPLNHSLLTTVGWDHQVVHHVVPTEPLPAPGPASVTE

SMILES: O=C(NC[C@@H](O)[C@@H]1Cc2ccccc2CN1)c1cccnc1 [Example 78, N-((R)-2-Hydroxy-2-((S)-1,2,3,4-tetrahydroisoquinolin-3-yl)ethyl)nicotinamide dihydrochloride]
- IC50: 1700 nM

SMILES: O=C(NC[C@@H](O)[C@@H]1Cc2ccccc2CN1)c1ccc(C(=O)N2C3CCC2COC3)c(C(F)F)c1 [Example 85, 4-(3-Oxa-8-azabicyclo[3.2.1]octane-8-carbonyl)-3-(difluoromethyl)-N-((R)-2-hydroxy-2-((S)-1,2,3,4-tetrahydroisoquinolin-3-yl)ethyl)benzamide]
- IC50: 279 nM

SMILES: O=C(NC[C@@H](O)[C@@H]1Cc2ccccc2CN1)c1ccnc(C(F)(F)F)c1 [Example 86, N-((R)-2-Hydroxy-2-((S)-1,2,3,4-tetrahydroisoquinolin-3-yl)ethyl)-2-(trifluoromethyl)isonicotinamide dihydrochloride]
- IC50: 3820 nM

SMILES: COc1cc(C(=O)N2C3CCC2COC3)ccc1C(=O)NC[C@@H](O)[C@@H]1Cc2ccccc2CN1 [Example 87, 4-(3-Oxa-8-azabicyclo[3.2.1]octane-8-carbonyl)-N-((R)-2-hydroxy-2-((S)-1,2,3,4-tetrahydroisoquinolin-3-yl)ethyl)-2-methoxybenzamide hydrochloride]
- IC50: 57 nM

SMILES: CC(=O)N1CCC(c2nc3cc(C(=O)NC[C@@H](O)[C@@H]4Cc5ccccc5CN4)ccc3[nH]2)CC1 [Example 88, 2-(1-Acetylpiperidin-4-yl)-N-((R)-2-hydroxy-2-((S)-1,2,3,4-tetrahydroisoquinolin-3-yl)ethyl)-1H-benzo[d]imidazole-5-carboxamide]
- IC50: 187 nM

SMILES: CCOc1cc(-c2nnc(C)o2)ccc1C(=O)NC[C@@H](O)[C@@H]1Cc2ccccc2CN1 [Example 89, 2-Ethoxy-N-((R)-2-hydroxy-2-((S)-1,2,3,4-tetrahydroisoquinolin-3-yl)ethyl)-4-(5-methyl-1,3,4-oxadiazol-2-yl)benzamide]
- IC50: 203 nM

SMILES: O=C(NC[C@@H](O)[C@@H]1Cc2ccccc2CN1)c1ccc(C(=O)N2CCCC2)cc1 [Example 90, N-((R)-2-Hydroxy-2-((S)-1,2,3,4-tetrahydroisoquinolin-3-yl)ethyl)-4-(pyrrolidine-1-carbonyl)benzamide]
- IC50: 947 nM

SMILES: O=C(NC[C@@H](O)[C@@H]1Cc2ccccc2CN1)c1ccc(C(=O)N2C3CCC2CC3)cc1 [Example 91, 4-(7-Azabicyclo[2.2.1]heptane-7-carbonyl)-N-((R)-2-hydroxy-2-((S)-1,2,3,4-tetrahydroisoquinolin-3-yl)ethyl)benzamide]
- IC50: 123 nM

SMILES: COC1CCN(C(=O)c2ccc(C(=O)NC[C@@H](O)[C@@H]3Cc4ccccc4CN3)cc2)CC1 [Example 92, N-((R)-2-Hydroxy-2-((S)-1,2,3,4-tetrahydroisoquinolin-3-yl)ethyl)-4-(4-methoxypiperidine-1-carbonyl)benzamide]
- IC50: 310 nM

SMILES: O=C(NC[C@@H](O)[C@@H]1Cc2ccccc2CN1)c1ccc(C(=O)N2CCCCO2)cc1 [Example 93, N-((R)-2-Hydroxy-2-((S)-1,2,3,4-tetrahydroisoquinolin-3-yl)ethyl)-4-(1,2-oxazinane-2-carbonyl)benzamide]
- IC50: 759 nM

SMILES: O=C(NC[C@@H](O)[C@@H]1Cc2ccccc2CN1)c1ccc(C(=O)NC2CCS(=O)(=O)CC2)cc1 [Example 95, N^1-(1,1-Dioxidotetrahydro-2H-thiopyran-4-yl)-N^4-((R)-2-hydroxy-2-((S)-1,2,3,4-tetrahydroisoquinolin-3-yl)ethyl)terephthalamide]
- IC50: 9710 nM

SMILES: O=C(NC[C@@H](O)[C@@H]1Cc2ccccc2CN1)c1ccc(C(=O)N2Cc3cccnc3C2)cc1 [Example 96, 4-(6,7-Dihydro-5H-pyrrolo[3,4-b]pyridine-6-carbonyl)-N-((R)-2-hydroxy-2-((S)-1,2,3,4-tetrahydroisoquinolin-3-yl)ethyl)benzamide]
- IC50: 1380 nM

SMILES: CC(C)NC(=O)c1ccc(C(=O)NC[C@@H](O)[C@@H]2Cc3ccccc3CN2)cc1 [Example 97, N^1-((R)-2-Hydroxy-2-((S)-1,2,3,4-tetrahydroisoquinolin-3-yl)ethyl)-N^4-isopropylterephthalamide]
- IC50: 18700 nM

SMILES: O=C(NC[C@@H](O)[C@@H]1Cc2ccccc2CN1)c1ccc(Cl)nc1 [Example 98, 6-Chloro-N—((R)-2-hydroxy-2-((S)-1,2,3,4-tetrahydroisoquinolin-3-yl)ethyl)nicotinamide hydrochloride]
- IC50: 230 nM

SMILES: O=C(NC[C@@H](O)[C@@H]1Cc2ccccc2CN1)c1ccc(OC2CCNCC2)nc1 [Example 99, N—((R)-2-Hydroxy-2-((S)-1,2,3,4-tetrahydroisoquinolin-3-yl)ethyl)-6-(piperidin-4-yloxy)nicotinamide trihydrochloride]
- IC50: 127 nM

SMILES: O=C(NC[C@@H](O)[C@@H]1Cc2ccccc2CN1)c1cc(NC2COC2)ncn1 [Example 107, N—((R)-2-Hydroxy-2-((S)-1,2,3,4-tetrahydroisoquinolin-3-yl)ethyl)-6-(oxetan-3-ylamino)pyrimidine-4-carboxamide]
- IC50: 546 nM

SMILES: CC(NC(=O)c1ccc(C(=O)N2CCOCC2)cc1)[C@@H](O)[C@@H]1Cc2ccccc2CN1 (stereo partly drawn) [Example 109, N-((1R)-1-Hydroxy-1-((S)-1,2,3,4-tetrahydroisoquinolin-3-yl)propan-2-yl)-4-(morpholine-4-carbonyl)benzamide hydrochloride]
- IC50: 688 nM

SMILES: CC(NC(=O)c1ccc(C(=O)N2CCOCC2)cc1)[C@H](O)[C@@H]1Cc2ccccc2CN1 (stereo partly drawn) [Example 110, N-((1S)-1-Hydroxy-1-((S)-1,2,3,4-tetrahydroisoquinolin-3-yl)propan-2-yl)-4-(morpholine-4-carbonyl)benzamide hydrochloride]
- IC50: 1490 nM

SMILES: Nc1ccc(C(=O)NC[C@@H](O)[C@@H]2Cc3ccccc3CN2)cn1 [Example 111, 6-Amino-N-((R)-2-hydroxy-2-((S)-1,2,3,4-tetrahydroisoquinolin-3-yl)ethyl)nicotinamide dihydrochloride]
- IC50: 4670 nM

SMILES: O=C(NC[C@@H](O)[C@@H]1Cc2ccccc2CN1)c1ccc2[nH]ncc2c1 [Example 112, N-((R)-2-Hydroxy-2-((S)-1,2,3,4-tetrahydroisoquinolin-3-yl)ethyl)-1H-indazole-5-carboxamide dihydrochloride]
- IC50: 2310 nM

SMILES: O=C(NC[C@@H](O)[C@@H]1Cc2ccccc2CN1)c1ccc2[nH]nnc2c1 [Example 114, N-((R)-2-Hydroxy-2-((S)-1,2,3,4-tetrahydroisoquinolin-3-yl)ethyl)-1H-benzo[d][1,2,3]triazole-5-carboxamide dihydrochloride]
- IC50: 5490 nM

SMILES: O=C(NC[C@@H](O)[C@@H]1Cc2ccccc2CN1)c1cc(Cl)nc(OC2COC2)c1 [Example 115, 2-Chloro-N-((R)-2-hydroxy-2-((S)-1,2,3,4-tetrahydroisoquinolin-3-yl)ethyl)-6-(oxetan-3-yloxy)isonicotinamide dihydrochloride]
- IC50: 2830 nM

SMILES: CC(=O)N1CCC(Oc2cc(C(=O)NC[C@@H](O)[C@@H]3Cc4ccccc4CN3)cnn2)CC1 [Example 116, 6-((1-Acetylpiperidin-4-yl)oxy)-N-((R)-2-hydroxy-2-((S)-1,2,3,4-tetrahydroisoquinolin-3-yl)ethyl)pyridazine-4-carboxamide dihydrochloride]
- IC50: 1110 nM

SMILES: O=C(NC[C@@H](O)[C@@H]1Cc2ccccc2CN1)c1cccc2c1ncn2C1CCOCC1 [Example 117, N-((R)-2-Hydroxy-2-((S)-1,2,3,4-tetrahydroisoquinolin-3-yl)ethyl)-1-(tetrahydro-2H-pyran-4-yl)-1H-benzo[d]imidazole-4-carboxamide dihydrochloride]
- IC50: 487 nM

SMILES: COC(=O)N1CCC(Oc2cncc(C(=O)NC[C@@H](O)[C@@H]3Cc4ccccc4CN3)c2)CC1 [Example 118, Methyl 4-((5-(((R)-2-hydroxy-2-((S)-1,2,3,4-tetrahydroisoquinolin-3-yl)ethyl)carbamoyl)pyridin-3-yl)oxy)piperidine-1-carboxylate dihydrochloride]
- IC50: 502 nM

SMILES: O=C(NC[C@@H](O)[C@@H]1Cc2ccccc2CN1)c1ccnc(OC2CCN(CC(F)(F)F)CC2)c1 [Example 124, N—((R)-2-Hydroxy-2-((S)-1,2,3,4-tetrahydroisoquinolin-3-yl)ethyl)-2-((1-(2,2,2-trifluoroethyl)piperidin-4-yl)oxy)isonicotinamide]
- IC50: 70 nM

SMILES: CCOc1cc(C(=O)N2C3CCC2COC3)ccc1C(=O)NC[C@@H](O)[C@@H]1Cc2cc(C)ccc2CN1 [Example 125, 4-(3-Oxa-8-azabicyclo[3.2.1]octane-8-carbonyl)-2-ethoxy-N—((R)-2-hydroxy-2-((S)-6-methyl-1,2,3,4-tetrahydroisoquinolin-3-yl)ethyl)benzamide hydrochloride]
- IC50: 232 nM
